Data taken from article PMC4553520, “Laboratory and Simulated Field Bioassays to Evaluate Larvicidal Activity of Pinus densiflora Hydrodistillate, Its Constituents and Structurally Related Compounds against Aedes albopictus, Aedes aegypti and Culex pipiens pallens in Relation to Their Inhibitory Effects on Acetylcholinesterase Activity” (Insects, 2013).
Converted amounts (≈) assume the structure as drawn.

Columns and labels:
[1] = test system: early third-instar larvae of Cx. p. pallens; assay: Direct-contact mortality bioassay, laboratory-reared Cx. p. pallens larvae; details: for LC50 (Cx p. pallens), mg/L (95% CL): laboratory-reared early third-instar larvae, 24 h exposure, direct contact; for LC50: Culex pipiens, 24 h, read-out: LC50 (Cx p. pallens), mg/L (95% CL)
Protocol: (§1) Direct-contact mortality bioassays were employed to evaluate the toxicity of all compounds, using early third-instar larvae of each mosquito species. Each compound was dissolved in methanol, and then further diluted in distilled water containing Triton X-100 (20 µL/L). Groups of 20 mosquito larvae of each species were put into separate paper cups (270 mL), each containing different compound solutions (250 mL). The toxicity of each compound was determined by repeating this experimental procedure with different concentrations, ranging from 5 to 200 mg/L. Temephos and fenthion served as standard references and were similarly formulated as well. Controls contained only methanol-Triton X-100 carrier solution in distilled water.
(§2) Both treated and control larvae were kept under the same conditions as those used for colony maintenance. […] Due to certain constraints arising from the number of available larvae, all necessary bioassays could not be conducted simultaneously and thus, treatments were conducted over a period of time, with a separate control treatment included each time. Freshly prepared compound solutions were used for each round of bioassays. All bioassays were repeated three times.
(§3) Concentration-mortality data were subjected to probit analysis using SAS [20]. […] Furthermore, for the compounds tested in AChE inhibition assays, a correlation analysis between their LC50 values and IC50 values was conducted using SAS [20].

[2] = test system: early third-instar larvae of Ae. albopictus; assay: Direct-contact mortality bioassay, Ae. albopictus larvae; details: for LC50 (Ae. albopictus), mg/L (95% CL): early third-instar larvae, 24 h exposure, direct contact; for LC50: Aedes albopictus, 24 h, read-out: LC50 (Ae. albopictus), mg/L (95% CL)
Protocol: as §1, §2, §3

[3] = test system: early third-instar larvae of Ae. aegypti; assay: Direct-contact mortality bioassay, Ae. aegypti larvae; details: for LC50 (Ae. aegypti), mg/L (95% CL): early third-instar larvae, 24 h exposure, direct contact; for LC50: Aedes aegypti, 24 h, read-out: LC50 (Ae. aegypti), mg/L (95% CL)
Protocol: as §1, §2, §3

[4] = test system: field-collected larvae of Cx. p. pallens; assay: Semi-field bioassay, field-collected Cx. p. pallens larvae; details: for LC50: Culex pipiens, 24 h, read-out: LC50, mg/L, Field-collected; for Resistance ratio: field-collected vs laboratory-reared Cx. p. pallens larvae (LC50 ratio)
Protocol: Larvae of wild mosquitoes were field-collected from irrigated rice fields in Yongin, Korea in early August 2012. A satellite view of the larvae collection site is included in Figure 1 [13].
The buckets were treated with test compounds and covered with nylon mesh screen to prevent other mosquitoes and insects from laying eggs. The buckets were then placed back at the initial collection site and were allowed to stand for 24 h, after which the mortality data were recorded. Temephos and fenthion served as standard references.
as §3

Molecule	LC50 (Cx p. pallens), mg/L (95% CL) [1]	LC50 (Ae. albopictus), mg/L (95% CL) [2]	LC50 (Ae. aegypti), mg/L (95% CL) [3]	LC50 [4] [mg/L]	Resistance ratio [4]	LC50 [1] [mg/L]	LC50 [2] [mg/L]	LC50 [3] [mg/L]
CC1=C[C@H](O)[C@H]2C[C@@H]1C2(C)C (relative stereo) [(S)-cis-verbenol]	140.41 (124.89–167.57) mg/L	136.86 (121.92–161.87) mg/L	>150 mg/L	–	–	–	–	–
CC1(C)[C@@H]2CC[C@H](CO)[C@H]1C2 (relative stereo) [(−)-cis-myrtanol]	>150 mg/L	>150 mg/L	>150 mg/L	–	–	–	–	–
CC(C)=CCCC(C)CC=O (single isomer, unassigned; (+)) [(+)-citronellal]	49.47 (43.52–57.04) mg/L	46.39 (41.08–52.95) mg/L	48.23 (42.42–55.64) mg/L	–	–	–	–	–
C=C(C)C1CC=C(C)CC1 (single isomer, unassigned; (+)) [(+)-limonene]	–	–	–	10.5 (≈ 77.4 µM)	0.98	10.8 (≈ 79 µM)	10.8 (≈ 79.1 µM)	15.3 (≈ 112 µM)
CC1=CCC(O)(C(C)C)CC1 (single isomer, unassigned; (+)) [(+)-terpinen-4-ol]	86.25 (78.22–95.55) mg/L	98.28 (91.85–105.07) mg/L	78.73 (71.24–85.73) mg/L	–	–	–	–	–
CC1(C)C2CC=C(CO)C1C2 (single isomer, unassigned; (-)) [(−)-myrtenol]	>150 mg/L	>150 mg/L	>150 mg/L	–	–	–	–	–
CC12CCC(CC1)C(C)(C)O2 [1,8-cineole]	–	–	–	–	–	72.9 (≈ 472 µM)	73.5 (≈ 476 µM)	73.3 (≈ 475 µM)
CC1=CC[C@@H]2C[C@H]1C2(C)C [(1R)-(+)-α-pinene]	–	–	–	–	–	60.8 (≈ 447 µM)	55.6 (≈ 408 µM)	51.3 (≈ 376 µM)
CC1=CC[C@H]2C[C@@H]1C2(C)C [(1S)-(−)-α-pinene]	–	–	–	–	–	32 (≈ 235 µM)	28.6 (≈ 210 µM)	40 (≈ 293 µM)
CC(C)=CCCC(C)CCO (stereo not drawn) [(+)-β-citronellol]	87.81 (80.62–95.50) mg/L	90.89 (83.26–99.00) mg/L	93.46 (85.80–101.82) mg/L	–	–	–	–	–
C=C(C)[C@H]1CC=C(C)C(=O)C1 [(S)-(+)-carvone]	46.19 (43.54–49.12) mg/L	43.83 (41.78–45.91) mg/L	42.14 (39.62–44.62) mg/L	–	–	–	–	–
CC(C)=CCC[C@H](C)CC=O [(−)-citronellal]	–	–	–	–	–	41.9 (≈ 272 µM)	41.1 (≈ 266 µM)	37.5 (≈ 243 µM)
CC1=CC(=O)[C@H]2C[C@@H]1C2(C)C [(−)-verbenone]	–	–	–	–	–	89.1 (≈ 593 µM)	89.4 (≈ 595 µM)	96.8 (≈ 644 µM)
CC(C)=CCCC(C)CCO (stereo not drawn) [(−)-β-citronellol]	66.26 (59.63–73.33) mg/L	71.99 (64.67–80.37) mg/L	75.31 (68.31–83.22) mg/L	–	–	–	–	–
C=C1CC[C@@H]2[C@H]([C@@H]3[C@H](C)CC[C@@H]13)C2(C)C [Aromadendrene]	147.91 (127.93–188.26) mg/L	129.21 (118.02–145.97) mg/L	>150 mg/L	–	–	–	–	–
CC1(C)C2CCC1(C)C(O)C2 (stereo not shown) [Borneol]	–	–	–	–	–	> 150	> 150	> 150
CC(=O)OC1CC2CCC1(C)C2(C)C (stereo not shown) [Bornyl acetate]	–	–	–	–	–	> 150	> 150	> 150
C=C1C2CCC(C2)C1(C)C (stereo not shown) [Camphene]	–	–	–	–	–	80.1 (≈ 588 µM)	79.1 (≈ 581 µM)	72.9 (≈ 535 µM)
CC12CCC(CC1=O)C2(C)C (stereo not shown) [Camphor]	–	–	–	–	–	> 150	> 150	> 150
Cc1ccc(C(C)C)cc1O [Carvacrol]	–	–	–	–	–	91.9 (≈ 612 µM)	95 (≈ 633 µM)	101 (≈ 673 µM)
C=C(C)C1CC=C(C)[C@@H](O)C1 (stereo partly shown) [Carveol]	–	–	–	–	–	114 (≈ 746 µM)	121 (≈ 796 µM)	124 (≈ 814 µM)

Molecule	LC50 (Cx p. pallens), mg/L (95% CL) [1]	LC50 (Ae. albopictus), mg/L (95% CL) [2]	LC50 (Ae. aegypti), mg/L (95% CL) [3]	LC50 [4] [mg/L]	Resistance ratio [4]	LC50 [1] [mg/L]	LC50 [2] [mg/L]	LC50 [3] [mg/L]
C=C1CC[C@H]2O[C@]2(C)CC[C@@H]2[C@@H]1CC2(C)C [Caryophyllene oxide]	126.28 (110.92–158.13) mg/L	107.62 (99.82–116.81) mg/L	113.00 (104.54–123.59) mg/L	–	–	–	–	–
COP(=S)(OC)Oc1ccc(SC)c(C)c1 [Fenthion, reference compound]	–	–	–	3.12 (≈ 11.2 µM)	115.56	0.027 (≈ 0.097 µM)	0.012 (≈ 0.0431 µM)	0.022 (≈ 0.079 µM)
CC(C)=CCC/C(C)=C/CO [Geraniol]	–	–	–	–	–	57 (≈ 369 µM)	68.2 (≈ 442 µM)	73.4 (≈ 476 µM)
CC(=O)OC/C=C(\C)CCC=C(C)C [Geranyl acetate]	–	–	–	–	–	30.3	33	21.4
C=CC(C)(O)CCC=C(C)C (stereo not shown) [Linalool]	–	–	–	–	–	144 (≈ 935 µM)	129 (≈ 837 µM)	113 (≈ 736 µM)
C=CC(C)(CCC=C(C)C)OC(C)=O (stereo not shown) [Linanyl acetate]	–	–	–	–	–	97	98.1	97.8
CC1CCC(C(C)C)C(O)C1 (stereo not shown) [Menthol]	–	–	–	–	–	67.3 (≈ 430 µM)	69.6 (≈ 445 µM)	81.2 (≈ 520 µM)
C=CC(=C)CCC=C(C)C [Myrcene, β-myrcene]	–	–	–	–	–	41.3 (≈ 303 µM)	36 (≈ 264 µM)	39.5 (≈ 290 µM)
CC(C)=CCC/C(C)=C\CO [Nerol]	–	–	–	–	–	111 (≈ 723 µM)	112 (≈ 723 µM)	121 (≈ 783 µM)
COP(=S)(OC)Oc1ccc(Sc2ccc(OP(=S)(OC)OC)cc2)cc1 [Temephos, reference compound]	–	–	–	1.68 (≈ 3.6 µM)	129.23	0.013 (≈ 0.0279 µM)	0.01 (≈ 0.0214 µM)	0.015 (≈ 0.0322 µM)
CC(=O)OC(C)(C)C1CC=C(C)CC1 (stereo not shown) [Terpinyl acetate]	58.27 (52.60–64.82) mg/L	72.39 (65.05–80.55) mg/L	96.32 (89.89–103.04) mg/L	–	–	–	–	–
Cc1cccc(C(C)C)c1 [m-cymene]	–	–	–	–	–	59.4 (≈ 442 µM)	62 (≈ 462 µM)	69.7 (≈ 519 µM)
Cc1ccccc1C(C)C [o-cymene]	47.78 (40.96–55.39) mg/L	48.57 (42.14–55.77) mg/L	39.60 (33.25–46.71) mg/L	–	–	–	–	–
Cc1ccc(C(C)C)cc1 [p-cymene]	–	–	–	–	–	29.7 (≈ 221 µM)	32.8 (≈ 245 µM)	33.5 (≈ 249 µM)
CC1=CC[C@H](C(C)C)C=C1 [α-phellandrene]	–	–	–	–	–	14 (≈ 103 µM)	16.9 (≈ 124 µM)	19.4 (≈ 142 µM)
CC1=CC=C(C(C)C)CC1 [α-terpinene]	–	–	–	–	–	23.9 (≈ 175 µM)	21.9 (≈ 161 µM)	24.9 (≈ 182 µM)
CC1=CCC(=C(C)C)CC1 [α-terpinolene]	–	–	–	13.9 (≈ 102 µM)	1.31	10.6 (≈ 78 µM)	13.9 (≈ 102 µM)	15.3 (≈ 112 µM)
C=C1CC/C=C(\C)CC[C@@H]2[C@@H]1CC2(C)C [β-caryophyllene]	–	–	–	–	–	47.8 (≈ 234 µM)	39.5 (≈ 193 µM)	38.6 (≈ 189 µM)
CC1=CCC(C(C)C)=CC1 [γ-terpinene]	–	–	–	–	–	17.8 (≈ 130 µM)	16.2 (≈ 119 µM)	20.5 (≈ 150 µM)
CC1=CCC2C(C1)C2(C)C (stereo not shown) [δ-3-carene]	–	–	–	12.7 (≈ 93 µM)	1.25	10.1 (≈ 74.2 µM)	9.33 (≈ 68.5 µM)	12.1 (≈ 88.8 µM)
(−)-terpinen-4-ol	85.66 (75.71–97.28) mg/L	92.16 (84.28–101.24) mg/L	72.36 (66.33–78.22) mg/L	–	–	–	–	–
